Assay results from patent publication US4447422A, “Penicillins and compositions containing them” (Beecham Group p.1.c., priority 1981, dated 1984).
Values after ≈ are worked out from the molar mass of the structure shown. Where a name gives a salt, the structure may show the parent alone.

Experiments:
Staph aureus Oxford = test: antibacterial activity (MIC); type: cell-based; conditions: Staphylococcus aureus; Table 2; gram positive organism Staph. aureus Oxford; read-out: MIC
E coli NCTC 10418 = test: antibacterial activity (MIC); type: cell-based; conditions: Escherichia coli, NCTC10418; Table 2; gram negative organism E. coli NCTC 10418

Structure (SMILES) | MIC (Staph aureus Oxford) [µg/mL] | MIC (E coli NCTC 10418) [µg/mL]
CNc1ncc(C(=O)N[C@@H](C(=O)N[C@@H]2C(=O)N3[C@@H]2SC(C)(C)[C@@H]3C(=O)O)c2ccccc2)c(O)n1 [Example 11, 6β-D-2-(2-Methylamino-4-hydroxypyrimidine-5-carbonylamino)-2-phenyl] acetamido penicillanic acid, disodium salt] | 2.5 | 25
CCCCNc1ncc(C(=O)N[C@@H](C(=O)N[C@@H]2C(=O)N3[C@@H]2SC(C)(C)[C@@H]3C(=O)O)c2ccc(O)cc2)c(O)n1 [Example 17, 6β-[D-2-(2-n-Butylamino-4-hydroxypyrimidine-5-carbonylamino)-2-(4-hydroxyphenyl)] acetamido penicillanic acid, disodium salt] | 2.5 | 5
CC1(C)S[C@@H]2[C@H](NC(=O)[C@H](NC(=O)c3cnc(NCc4ccc(S(N)(=O)=O)cc4)nc3O)c3ccccc3)C(=O)N2[C@H]1C(=O)O [Example 7, 6β-[D-2-(2-[4-sulphonamidobenzylamino]-4-hydroxypyrimidine-5-carbonylamino)-2-phenyl]acetamido penicillanic acid, disodium salt] | 2.5 | 10
CCCCCCCCNc1ncc(C(=O)N[C@@H](C(=O)N[C@@H]2C(=O)N3[C@@H]2SC(C)(C)[C@@H]3C(=O)O)c2ccccc2)c(O)n1 [Example 20, 6β-[D-2-(2-n-Octylamino-4-hydroxypyrimidine-5-carbonylamino)-2-phenyl] acetamido penicillanic acid, disodium salt] | 2.5 | 10
COCCCNc1ncc(C(=O)N[C@@H](C(=O)N[C@@H]2C(=O)N3[C@@H]2SC(C)(C)[C@@H]3C(=O)O)c2ccccc2)c(O)n1 [Example 12, 6β-[D-2-(2-[3-methoxypropyl-1-amino]-4-hydroxypyrimidine-5-carbonylamino)-2-phenyl] acetamido penicillanic acid, disodium salt] | 1.2 | 5
CC1(C)S[C@@H]2[C@H](NC(=O)[C@H](NC(=O)c3cnc(NCc4ccco4)nc3O)c3ccccc3)C(=O)N2[C@H]1C(=O)O [Example 10, 6β-[D-2-(2-Furfurylamino-4-hydroxypyrimidine-5-carbonylamino)-2-phenyl] acetamido penicillanic acid, disodium salt] | 1.2 | 5
CC1(C)S[C@@H]2[C@H](NC(=O)[C@H](NC(=O)c3cnc(NCCc4ccccc4)nc3O)c3ccc(O)cc3)C(=O)N2[C@H]1C(=O)O [Example 5, 6β-[D-2-(2-(2-phenylethyl-1-amino)-4-hydroxypyrimidine-5-carbonylamino)-2-(4-hydroxyphenyl)] acetamido penicillanic acid] | 1.2 (≈ 1.98 µM) | 5 (≈ 8.24 µM)
CCSCCNc1ncc(C(=O)N[C@@H](C(=O)N[C@@H]2C(=O)N3[C@@H]2SC(C)(C)[C@@H]3C(=O)O)c2ccc(O)cc2)c(O)n1 [Example 14, 6β-[D-2-(2-[2-(ethylthio)ethyl-1-amino]-4-hydroxypyrimidine-5-carbonylamino)-2-(4-hydroxyphenyl)]acetamidopenicillanic acid, disodium salt] | 1.2 | 2.5
CC1(C)S[C@@H]2[C@H](NC(=O)[C@H](NC(=O)c3cnc(NCc4ccccc4)nc3O)c3ccc(O)cc3)C(=O)N2[C@H]1C(=O)O [Example 4, 6β-[D-2-(2-Benzylamino-4-hydroxypyrimidine-5-carbonylamino)-2-(4-hydroxyphenyl)] acetamido penicillanic acid disodium salt] | 1.25 | 5
CC1(C)S[C@@H]2[C@H](NC(=O)[C@H](NC(=O)c3cnc(NCCCc4ccccc4)nc3O)c3ccccc3)C(=O)N2[C@H]1C(=O)O [Example 3, 6β-[D-2-(2-(3-phenylpropyl-1-amino)-4-hydroxypyrimidine-5-carbonylamino)-2-phenyl] acetamido penicillanic acid] | 1.2 (≈ 1.98 µM) | 5 (≈ 8.27 µM)
CCCCCNc1ncc(C(=O)N[C@@H](C(=O)N[C@@H]2C(=O)N3[C@@H]2SC(C)(C)[C@@H]3C(=O)O)c2ccccc2)c(O)n1 [Example 18, 6β-[D-2-(2-n-Pentylamino-4-hydroxypyrimidine-5-carbonylamino)-2-phenyl] acetamido penicillanic acid, disodium salt] | 1.25 | 1.25

Second part, the molecule after the results:

MIC (Staph aureus Oxford) [µg/mL] | MIC (E coli NCTC 10418) [µg/mL] | Structure (SMILES)
0.5 | 5 | CC1(C)S[C@@H]2[C@H](NC(=O)[C@H](NC(=O)c3cnc(NC(=O)c4ccccc4)nc3O)c3ccccc3)C(=O)N2[C@H]1C(=O)O [Example 23, 6β-[D-2-(2-benzoylamino-4-hydroxypyrimidine-5-carbonylamino)-2-phenyl] acetamido penicillanic acid, disodium salt]
0.5 | 2.5 | CCCNc1ncc(C(=O)N[C@@H](C(=O)N[C@@H]2C(=O)N3[C@@H]2SC(C)(C)[C@@H]3C(=O)O)c2ccccc2)c(O)n1 [Example 15, 6β-[D-2-(2-n-propylamino-4-hydroxypyrimidine-5-carbonylamino)-2-phenyl] acetamido penicillanic acid, disodium salt]
0.5 | 1.2 | CCCCCCNc1ncc(C(=O)N[C@@H](C(=O)N[C@@H]2C(=O)N3[C@@H]2SC(C)(C)[C@@H]3C(=O)O)c2ccccc2)c(O)n1 [Example 19, 6β-[D-2-(2-n-hexylamino-4-hydroxypyrimidine-5-carbonylamino)-2-phenyl] acetamido penicillanic acid, disodium salt]
0.5 | 5 | CCCC(=O)Nc1ncc(C(=O)N[C@@H](C(=O)N[C@@H]2C(=O)N3[C@@H]2SC(C)(C)[C@@H]3C(=O)O)c2ccccc2)c(O)n1 [Example 22, 6β-[D-2-(2-n-butyrylamino-4-hydroxypyrimidine-5-carbonylamino)-2-phenyl] acetamido penicillanic acid, disodium salt]
1.2 | 10 | COc1cc(CNc2ncc(C(=O)N[C@@H](C(=O)N[C@@H]3C(=O)N4[C@@H]3SC(C)(C)[C@@H]4C(=O)O)c3ccccc3)c(O)n2)ccc1O [Example 8, 6β-[D-2-(2[4-Hydroxy-3-methoxybenzylamino]-4-hydroxypyrimidine-5-carbonylamino)-2-phenyl] acetamido penicillanic acid, disodium salt]
0.5 | 5 | COCCNc1ncc(C(=O)N[C@@H](C(=O)N[C@@H]2C(=O)N3[C@@H]2SC(C)(C)[C@@H]3C(=O)O)c2ccccc2)c(O)n1 [Example 13, 6β-[D-2-(2-Methoxyethyl-1-amino]-4-hydroxypyrimidine-5-carbonylamino)-2-phenyl] acetamido penicillanic acid, disodium salt]
0.25 | 5 | COc1ccc(CNc2ncc(C(=O)N[C@@H](C(=O)N[C@@H]3C(=O)N4[C@@H]3SC(C)(C)[C@@H]4C(=O)O)c3ccccc3)c(O)n2)cc1 [Example 9, 6β-[D-2-(2-[4-Methoxybenzylamino]-4-hydroxypyrimidine-5-carbonylamino)-2-phenyl] acetamido penicillanic acid, disodium salt]
0.2 (≈ 0.327 µM) | 5 (≈ 8.18 µM) | CC1(C)S[C@@H]2[C@H](NC(=O)[C@H](NC(=O)c3cnc(NCc4ccc(Cl)cc4)nc3O)c3ccccc3)C(=O)N2[C@H]1C(=O)O [Example 6, 6β-D-[2-(2-[4Chlorobenzylamino]-4-hydroxypyrimidine-5-carbonylamino)-2-phenyl] acetamido penicillanic acid]
0.2 | 2.5 | CC1(C)S[C@@H]2[C@H](NC(=O)[C@H](NC(=O)c3cnc(NC(=O)OCc4ccccc4)nc3O)c3ccccc3)C(=O)N2[C@H]1C(=O)O [Example 25, 6β-D-2-(2-benzyloxycarbonylamino-4-hydroxypyrimidine-5-carbonylamino-2-phenyl] acetamido penicillanic acid, disodium salt]
0.5 | 5 | CC(C)COC(=O)Nc1ncc(C(=O)N[C@@H](C(=O)N[C@@H]2C(=O)N3[C@@H]2SC(C)(C)[C@@H]3C(=O)O)c2ccccc2)c(O)n1 [Example 24, 6β-D-2-(2-Isobutyloxycarbonylamino-4-hydroxypyrimidine-5-carbonylamino)-2-phenyl]acetamido penicillanic acid, disodium salt]
0.2 | 5 | C=CCNc1ncc(C(=O)N[C@@H](C(=O)N[C@@H]2C(=O)N3[C@@H]2SC(C)(C)[C@@H]3C(=O)O)c2ccccc2)c(O)n1 [Example 21, 6β-[D-2-(2-Allylamino-4-hydroxypyrimidine-5-carbonylamino)2-phenyl] acetamido penicillanic acid, disodium salt]
